Source: US5232917A, “Methods, compositions, and compounds for allosteric modulation of the GABA receptor by members of the androstane and pregnane series” (priority 1991, dated 1993)
Like-named read-outs stand apart in the source and are kept apart here.

What was measured:
[1] = system: number of light/dark transitions (anxiety); experiment: Light/dark transition test; format: in vivo, mice (male N.I.H. Swiss-Webster); conditions: for effect on number of light/dark transitions (words): 3α-OH-DHP 10, 20, 40 mg/kg, 5α-THDOC 20 mg/kg, diazepam 1.0, 5.0, 10, 20 mg/kg, 20 mg/kg
Text: (§1) The light/dark transition test (Crawley and Goodwin, 1980) is based on the observation that rodents naturally tend to explore novel environments, but open, brightly lit arenas are aversive to the rodents and inhibit exploratory behavior (Christmas and Maxwell, 1970; File, 1980). […] Similar to the light/dark transition test, the open-field test measures the antagonism between the tendency to explore a novel environment and the tendency to remain still in an aversive environment (brightly lit arena). […] The open-field test provides a simple, non-punished assessment of the potential anxiolytic properties of novel compounds. Finally, 3α-OH-DHP was tested for anxiolytic properties in a Vogel conflict paradigm. The ability of BZs to attenuate the suppression of behavior by punishment in conflict paradigms is well established (Gellar et al., 1962; Vogel et al., 1971).
(§2) Male N.I.H. Swiss-Webster mice (Harlan) weighing 15-20 g were used in all experiments. The mice were housed 4/cage in polyethylene cages with sawdust bedding. The colony room was environmentally controlled (22° C.) with a 12 hr. light/dark cycle (0600-1800 hrs.). The mice had free access to food and water. The experiments were run from 0700-1500 hrs. and groups were counterbalanced for time of day effects.
The method used was previously described by Crawley and Goodwin (1980). The apparatus included a large box (26×33×24 cm) connected to a small box (15×22×14 cm) through an opening (5×6 cm). The large box was brightly lit with a standard 100W light bulb, while the small box was kept dark. Following pretreatment with a test drug, mice were placed in the center of the large box and the number of transitions between the large and small boxes was counted for 10 min. […] During the antagonist studies, CGS-8216 was administered 30 min. prior to the test drug.
(§3) 2-Hydroxypropyl β-cyclodextrin Diazepam and chlordiazepoxide are available from Sigma, Co. (St. Louis, Mo.). CGS-8216 was obtained from Ciba-Geigy (Summit, N.J.). All drugs were dissolved in 20% β-cyclodextrin in water and sonicated overnight. All drugs were administered intraperitoneally in a volume of 100 μL/20 g. CGS-8216 was administered subcutaneously in a volume of 100 μL/20 g.
(§4) The vehicle control data were analyzed across test days using an 1-way analysis of variance (ANOVA). […] The dose-response curves were then analyzed using an 1-way ANOVA, followed by Dunnett's t-test for individual comparisons between doses and control. The open-field and habituated locomotor data were analyzed using ANOVA followed by Dunnett's t-test. […] All data is expressed as the mean±S.E.M.

[2] = biological target: GABA receptor-chloride ionophore complex (GR complex); experiment: [35S]TBPS binding modulation assay
[3] = system: metrazol induced convulsions; experiment: Inhibition of metrazol induced convulsions (Table 2); format: in vivo, mice; conditions: Mus musculus; inhibition of metrazol induced convulsions; read-out: Anti-Metrazol ED50
Procedure: Experiments were also performed to determine the physiological relevance of these interactions by measuring the ability of the compound of and used in the invention to modulate TBPS-induced convulsions in Swiss-Webster mice. […] The time to onset of myoclonus (presence of forelimb clonic activity) induced by TBPS was determined by observing each mouse for a period of 45 minutes. Significant differences between the time to onset in control mice vs. steroid-treated mice were determined by Student's t-test. […] The number of animals with tonic and/or clonic convulsions was recorded. In the maximal electroshock test, 50 mA of current at 60 Hz was delivered through corneal electrodes for 200 msec to induce tonic seizure. […] The ED50 (the dose at which the half-maximal effect occurs) was determined for each screen.
Adult male CFI mice (20-30g) were used in these studies. […] Percent protection against metrazol-induced seizures was plotted against time after administration of the compound. […] Ten to twelve mice were used per dose of test drug. […] The number of animals with tonic and/or clonic convulsions was recorded. The ability of the steroid to abolish the tonic component was defined as the endpoint. Sedative potential was determined by a rotorod test where the number of mice staying on a rotating (6 rpm) rod for ≥1 min. in each of three trials was determined.

open-field activity = experiment: Open-field activity test; format: in vivo, mice (male N.I.H. Swiss-Webster); conditions: for total distance, open-field: 20 mg/kg, 10 min, vehicle 2004.6 ± 134.6; for effect on open-field activity: steroids 20 mg/kg, diazepam 10 mg/kg
Text: as §1, §2
As a secondary measure of anxiolytic effects, naive mice were placed in the center of a large, brightly lit plexiglass box (42×42×30.5 cm) and the total distance traveled was measured during a 10 min. test period. […] The Digiscan Activity Monitor (Omnitech Electronics, Columbus, Ohio) includes 16 photobeams that surround the box. The activity monitor is linked to a computer through a Digiscan Analyzer (Omnitech Electronics) and the data is analyzed using the Integrated Lab Animal Monitoring System (Omnitech Electronics). The mice were administered drugs as described for light/dark transitions.
as §3, §4

[4] = read-out: IC50, inhibition of [35S]-TBPS binding, +5 μM GABA, in the presence of 5 μM GABA

CC(=O)[C@H]1CC[C@H]2[C@@H]3CC[C@H]4C[C@H](O)CC[C@]4(C)[C@H]3CC[C@]12C [Example 3α-OH-DHP, 3α-hydroxy-5α-pregnan-20-one]
number of transitions in 10 min (maximal effect) ([1]; 3α-OH-DHP 20 mg/kg i.p., FIG. 9): 70.2±4.3 transitions | effect on number of light/dark transitions (words) [1]: significant (p<0.01) increase | effect on number of light/dark transitions (words) ([1]; listed as α-OH-DHP): number of transitions was increased | IC50 [2, 4]: 0.038 µM | IC50 ([2]; read-out: IC50, inhibition of [35S]-TBPS binding, No GABA, washed synaptoneurosomes, no GABA added): 0.23 µM | ED50 [3]: 5 mg/kg | total distance, open-field (open-field activity): 5344.9 ± 754.5 cm | effect on open-field activity (open-field activity): significant (p<0.01) increases in activity

C[C@]12CC[C@@H](O)C[C@@H]1CC[C@@H]1[C@@H]2CC[C@]2(C)[C@@H](C(=O)CO)CC[C@@H]12 [Example 5α-THDOC, 3α,21-dihydroxy-5α-pregnan-20-one]
effect on number of light/dark transitions (words) [1]: significantly different from vehicle | number of transitions in 10 min ([1]; 5α-THDOC 10 mg/kg i.p., vehicle 35.2±2.0, p<0.06, FIG. 10): 49.4±2.0 transitions | effect on number of light/dark transitions at the highest dose ([1]; 5α-THDOC 40 mg/kg, p<0.05 vs vehicle): significant decrease | IC50 [2, 4]: 0.08 µM | Max. Inhib., maximal % of specifically bound [35S]-TBPS displaced ([2]; saturating concentrations of test compound): 100% | ED50 [3]: 8 mg/kg | total distance, open-field (open-field activity): 7328.4 ± 769.5 cm | effect on open-field activity (open-field activity): significant (p<0.01) increases in activity
